We go through one compound from patent EP4048276B1, “SOLID PHARMACEUTICAL FORMULATIONS COMPRISING TICAGRELOR” (Santa Farma Ilaç Sanayi A.S., priority 2019, dated 2021).

In brackets after ≈: the same amount, converted by molar mass. Like-named read-outs stand apart in the source and are kept apart here.

What all share (type): physicochemical
Data set [1] can be described thus: Solubility study of ticagrelor drug substance in water and pH media. As to the method: (§1) Moreover, this low aqueous solubility of ticagrelor leads to an increase of relevance of particle size. Solubility studies in human intestinal fluids, bulk-tapped density, compressibility index, Hausner ratio, flowability studies of drug substance were performed prior to beginning of the development process of pharmaceutical drug product.

Data set [2] can be described thus: Particle size distribution analysis. As to the method:
Moreover, particle size distribution analysis for ticagrelor was performed.

Data set [3] in a line: Bulk/tapped density, compressibility index, Hausner ratio and flowability of drug substance. As to the method:
as §1
In addition, bulk density and tapped density values of ticagrelor was investigated. By using the results obtained, compressibility index, Hausner ratio and flowability of drug substance was designated.

For orientation: solubility means the dissolved amount per volume that the medium holds. Regarding `CCCSc1nc(N[C@@H]2C[C@H]2c2ccc(F)c(F)c2)c2nnn([C@@H]3C[C@H](OCCO)[C@@H](O)[C@H]3O)c2n1` [Ticagrelor, (1S,2S,3R,5S)-3-(7-{[(1R,2S)-2-(3,4-Diflourophenyl)cyclopropyl]amino}-5-(propylsulfanyl)-3H-[1,2,3]triazol[4,5-d]pyrimidine-3-yl)-5-(2-hydroxyethoxy)cyclopentane-1,2-diol], the solubility in data set [1] (pH 1.2 medium, pH 1.2, simulated gastric fluid, read-out: Average solubility, pH: 1.2) was 14 µg/mL (≈ 26.8 µM). Moreover, in data set [1] (pH 4.5 medium, pH 4.5, aqueous buffer, read-out: Average solubility, pH: 4.5), the solubility turned out to be 6 µg/mL (≈ 11.5 µM). The solubility in data set [1] (pH 6.8 medium, pH 6.8, aqueous buffer, read-out: Average solubility, pH: 6.8) stood at 5 µg/mL (≈ 9.57 µM). In addition, the solubility in data set [1] (water, read-out: Average solubility, Water) stood at 6 µg/mL (≈ 11.5 µM). In addition, in data set [2], the D10 is recorded as 3.0 µm, the D50 came to 6.4 µm and the D90 is listed as 12.5 µm. In addition, in data set [3], the Bulk density worked out at 0.157, the Compressibility index stood at 39%, the Flowability result is “Very poor” and the Hausner ratio came to 1.639. Also, the Tapped density in data set [3] is given as 0.257.
